Measured values as given in patent US12318381B2, “Treatment for non-alcoholic fatty liver disease” (1GLOBE BIOMEDICAL CO., LTD., priority 2018, dated 2025).
Entries after “also recorded” stand apart in the source; their conditions may differ.

What was measured:
FGF21 [1] = assay: Serum FGF21 ELISA in HFD-fed mice; format: in vivo, mouse; conditions: ELISA (FIG. 7D)
Text: (§1) Five-week-old male, C57Bl/6J mice (12-18 per group, Jackson Laboratory, Bar Harbor, Me.) were fed ad libitum with a modified high fat or control diet (Bioserv, Frenchtown, N.J.) for 15 weeks. […] We had verified the efficacy of this diet to induce obesity and NAFLD in various pilot studies. At the end of the 15-week long feeding regimen, this diet caused substantial ALT elevation—indicative of liver injury—in these mice.
(§2) After 15 weeks on the modified HFD, the mice were put on a Compound 13-3 (or control vehicle) dosing regimen, in which the introductory 5 mg/kg (p.o., t.i.w. for the first 3 weeks) dose was followed by the administration of 10 mg/kg (p.o., t.i.w. for additional 5 weeks) therapeutic dose. During the course of the drug treatment, the animals were monitored daily for changes in body weight, food/water intake, and adverse effects.
To study the effect of Compound 13-3 on the mediators of fatty acid metabolism, we employed quantitative real-time PCR using commercially available probes to assess mediators of fatty acid metabolism in HFD-fed mice treated with Compound 13-3. […] We, therefore, also measured serum levels of FGF21 using a commercially available ELISA kit.

HFD-fed mice [2] = assay: HFD-induced NAFLD mouse model: serum ALT and AST levels; format: in vivo
Text: as §1, §2
(§3) This biochemical change is very important, as ectopic fat accumulation has been linked to lipotoxicity and hepatocellular injury. The extent of liver injury has been characterized by measuring serum levels of two liver enzymes ALT (FIG. 6B) and AST (FIG. 6C) (UMASS Mouse Phenotyping Center Analytical Core, Worcester, Mass.) at the time of euthanasia.

PPAR-γ [3] = assay: Hepatic protein expression by Western-blotting and densitometry in HFD-fed mice; format: in vivo, mouse; conditions: Western-blotting and densitometry (FIG. 8B)
Text: as §1, §2
(§4) FGF21 has also been linked to the suppression of adipogenesis by suppressing hepatic PPAR-γ, FABP4 and CD36 (Xu J, et al. Diabetes (2009) 58(1):250-259). In view of this, we next assessed the expression of these mediators of adipogenesis in the livers of Compound 13-3-treated, HFD-fed mice.

collagen type I, alpha 1 = assay: Hepatic gene expression by quantitative real-time PCR in HFD-fed mice; format: in vivo, mouse; conditions: HFD-fed mice liver, quantitative real-time PCR (FIG. 5D)
Text: as §1, §2
Therefore, pharmaceutical compositions based on Compound 13-3 and other compounds of the invention will likely provide a viable treatment of NAFLD and especially NASH.

CPT1a = assay: as above; format: in vivo, mouse; conditions: HFD-fed mice (FIG. 7A)
Text: as §1, §2
(§5) To study the effect of Compound 13-3 on the mediators of fatty acid metabolism, we employed quantitative real-time PCR using commercially available probes to assess mediators of fatty acid metabolism in HFD-fed mice treated with Compound 13-3. As shown in FIGS. 7A-7E, gene expression of some key mediators of fatty acid oxidation such as CPT1a (FIG. 7A), an enzyme that catalyzes the rate-limiting step of fatty acid oxidation in the mitochondrion, of peroxisomal ACOX1 (FIG. 7B) and of FGF21 (FIG. 7C), a recently described hepatokine with pronounced anti-NAFLD and hepatoprotective efficacy (see, Maratos-Flier E Exp Cell Res (2017) 360(1): 2-5; Sonoda J, et al. Horm Mol Biol Clin Investig (2017) 30(2); Xu J, et al. Diabetes (2009) 58(1):250-259; Li H, et al. Diabetes (2012) 61(4): 797-806; Desai B N, et al. Mot Metab (2017) 6(11):1395-1406), were increased by Compound 13-3 treatment in HFD-fed mice. Many of the beneficial metabolic effects are linked to FGF21, and FGF21 itself may further enhance fatty acid oxidation (Xu J, et al. Diabetes (2009) 58(1):250-259; Li H, et al. Diabetes (2012) 61(4):797-806). We, therefore, also measured serum levels of FGF21 using a commercially available ELISA kit.

FGF21 [4] = assay: as above; format: in vivo, mouse; conditions: HFD-fed mice (FIG. 7C)
Text: as §1, §2, §5

ACOX1 = assay: as above; format: in vivo, mouse; conditions: HFD-fed mice (FIG. 7B)
Text: as §1, §2, §5

leptin = assay: Serum leptin ELISA in HFD-fed mice; format: in vivo, mouse; conditions: ELISA (FIG. 7E)
Text: as §1, §2
A suppressive effect of exogenous FGF21 on circulating leptin levels has been previously observed in non-human primates. Accordingly, we also measured serum leptin levels using a commercially available ELISA kit.

HFD-fed mice [5] = assay: High-fat diet (HFD)-induced obesity/NAFLD mouse model: body weight, food/water intake, liver size and weight; format: in vivo
Text: (§6) In order to assess the in vivo efficacy of Compound 13-3 in improving obesity, and ameliorating NAFLD/NASH, a previously used modified high-fat diet (HFD) was employed to induce obesity and severe fatty liver disease in mice (Derdak et al. Journal of Hepatology 2013; 58(4):785-91).
as §1, §2

FABP4 = assay: Hepatic gene expression in HFD-fed mice; format: in vivo, mouse; conditions: HFD-fed mice liver (FIG. 8C)
Text: as §1, §2, §4

PPAR-γ [6] = assay: Hepatic gene expression in HFD-fed mice; format: in vivo, mouse; conditions: HFD-fed mice (FIG. 8A)
Text: as §1, §2, §4

CD36 = assay: Hepatic gene expression in HFD-fed mice; format: in vivo, mouse; conditions: HFD-fed mice liver (FIG. 8D)
Text: as §1, §2, §4

HFD-fed mice [7] = assay: HFD-induced NAFLD mouse model: liver histology (H&E, Masson's trichrome, PAS) and NAFLD Activity Score; format: in vivo
Text: as §6, §1, §2
The pronounced efficacy of Compound 13-3 in improving NAFLD was further supported by microscopical analysis of the harvested liver samples (FIG. 4).
Microscopic evaluation of hematoxylin-eosin (H&E) stained liver slides was performed by an expert pathologist to determine the effect of the drug treatment on the NAFLD Activity Score (NAS), as a primary read-out for the anti-NAFLD efficacy of Compound 13-3. The composite NAS score is frequently used to describe the severity of the characteristic pathological changes seen in NAFLD/NASH (Kleiner D E et al. Hepatology. 2005; 41(6):1313-21), including steatosis, lobular inflammation (FIG. 5A), and hepatocellular ballooning (FIG. 5B).

HFD-fed mice [8] = assay: HFD-induced NAFLD mouse model: hepatic triglyceride biochemical assay; format: in vivo; conditions: HFD-fed mice liver (FIG. 6A)
Text: as §1, §2, §3

human HepG2 liver cells = assay: Intracellular triglyceride content in palmitoleic acid-treated HepG2 cells (biochemical kit); format: cell-based; conditions: HepG2, 1.6 mM palmitoleic acid in EMEM, 48 hours, 0.1 μM compound vs DMSO (FIG. 1A)
Description: A series of in vitro experiments were first carried out with various human hepatocyte cultures. For example, human HepG2 liver cells were incubated with 1.6 mM palmitoleic acid in EMEM medium for 48 hours in the presence of 0.1 μM Compound 13-3 or control vehicle, DMSO. After 48 hours, cells were collected and the intracellular triglyceride content was measured by a biochemical kit (Biovision, Mountain View, Calif.) as described in Derdak et al. J Hepatol. 2013; 58(4):785-91.

## CCN(CC)CCNC(=O)c1c(C)[nH]c(/C=C2\C(=O)Nc3ccc(-c4csc(-c5ccccc5)n4)cc32)c1C [Compound 13-3]
FGF21 [1]
  serum FGF21 level: increased
HFD-fed mice [2]; at euthanasia (FIG. 6B)
  serum ALT: suppresses ALT elevation
HFD-fed mice [2]; at euthanasia (FIG. 6C)
  serum AST: not affected
HFD-fed mice [2]; vs vehicle (FIG. 6D)
  serum AST:ALT ratio: largely prevent the drastic decrease
PPAR-γ [3]
  PPAR-γ protein expression in the liver: suppressed
Collagen type I, alpha 1
  hepatic production (gene expression) of collagen type I, alpha 1: marked decrease
CPT1a
  CPT1a gene expression: increased
FGF21 [4]
  FGF21 gene expression: pronounced elevation
ACOX1
  ACOX1 gene expression: increased
leptin
  serum leptin level (HFD-induced increase): significantly decreased
HFD-fed mice [5]; HFD-fed C57Bl/6J mice, 5 mg/kg p.o. t.i.w. 3 weeks then 10 mg/kg p.o. t.i.w. 5 weeks (FIG. 2A)
  change in body weight during treatment: not only prevented additional weight gain in the mice on HFD, but also triggered a gradual weight loss
HFD-fed mice [5]; HFD-fed mice, 5 mg/kg then 10 mg/kg p.o. t.i.w. (FIG. 2C)
  food intake: not linked to decreased food intake
HFD-fed mice [5]; HFD-fed mice, 5 mg/kg then 10 mg/kg p.o. t.i.w. (FIG. 2D)
  water intake: not linked to decreased food intake or water intake
HFD-fed mice [5]; HFD-fed mice, 5 mg/kg then 10 mg/kg p.o. t.i.w., vs vehicle (FIG. 2E, 3A)
  size of the liver (macroscopic overview at euthanasia): markedly decreased the size of the liver; also recorded: essentially comparable to the lean animals
HFD-fed mice [5]; HFD-fed mice, vs vehicle (pale yellow enlarged liver) (FIG. 2E)
  macroscopic appearance of the liver: healthier, darker brown appearance
HFD-fed mice [5]; HFD-fed mice, vs vehicle-treated littermates (FIG. 3A-3C)
  fatty metamorphosis / ectopic fat accumulation in the liver: markedly decreased or prevented ectopic fat accumulation
HFD-fed mice [5]; HFD-fed mice, vs vehicle-treated littermates, at euthanasia (FIG. 3A, 3B)
  liver weight: profoundly decrease liver weight
FABP4
  FABP4 gene expression: decreased
PPAR-γ [6]
  PPAR-γ gene expression in the liver: suppressed
CD36
  CD36 gene expression: decreased
HFD-fed mice [7]; HFD-fed mice (FIG. 5A)
  HFD-induced steatosis and lobular inflammation (NAS components): suppressed
HFD-fed mice [7]; HFD-fed mice (FIG. 5B)
  HFD-induced hepatocellular ballooning (NAS component): eliminated
HFD-fed mice [7]; HFD-fed mice, vehicle group depleted in zones 2 & 3 (FIG. 4 bottom row)
  hepatic glycogen depletion (Periodic Acid Schiff staining): evidence for hepatic depletion of glycogen was not present
HFD-fed mice [7]; HFD-fed mice, vehicle group showed stage 1 fibrosis (FIG. 4 middle row)
  fibrosis (Masson's trichrome staining): did not exhibit any signs of fibrosis
HFD-fed mice [7]; HFD-fed mice, vs vehicle (FIG. 4 top row)
  H&E histology: disorganized liver architecture, micro- and macrovesicular steatosis, hepatocyte ballooning and inflammation: markedly suppressed
HFD-fed mice [7]; HFD-fed mice, vs vehicle-treated littermates (FIG. 5C)
  NAFLD Activity Score (NAS): substantially lower
HFD-fed mice [8]
  hepatic triglyceride content: prevented the HFD-induced steatosis
Human HepG2 liver cells
  palmitoleic acid-induced increase of intracellular triglyceride content: markedly suppressed
